Results reported in US7569550B2, “14 and 15 membered ring compounds” (Glaxo Group Limited, priority 2003, dated 2009).
Structures can show the parent of a compound that is named as a salt.

Key:
Assay in all cases: MIC, standard broth dilution method in microtitre
Assay type in all cases: cell-based
S. pyogenes 3565 = details: Streptococcus pyogenes
Experimental: (§1) Using a standard broth dilution method in microtitre, compounds were tested for antibacterial activity. The compounds in the above examples gave minimum inhibitory concentrations (MICs) less than 1 microgram per millilitre against erythromycin-sensitive and erythromycin-resistant strains of Streptococcus pneumoniae and Streptococcus pyogenes.
(§2) In addition, the MIC (μg/ml) of test compounds against various organisms was determined including:
(§3) S. aureus Smith ATCC 13709, S. pneumoniae SP030, S. pyogenes 3565, E. faecalis ATCC 29212, H. influenzae ATCC 49247, M. catarrhalis ATCC 23246.

[1] = tested on: M. catarrhalis ATCC 23246; details: Moraxella catarrhalis, ATCC23246
Experimental: as §1, §2, §3

H. influenzae ATCC 49247 = details: Haemophilus influenzae, ATCC49247; H. influenzae ATCC 49247; read-out: MIC
Experimental: as §1, §2, §3

S. pneumoniae SP030 = details: Streptococcus pneumoniae
Experimental: as §1, §2, §3

[2] = tested on: S. aureus Smith ATCC 13709; details: Staphylococcus aureus, ATCC13709
Experimental: as §1, §2, §3

E. faecalis ATCC 29212 = details: Enterococcus faecalis, ATCC29212
Experimental: as §1, §2, §3

[3] = tested on: erythromycin resistant strains of Streptococcus pyogenes
Experimental: as §1

[4] = tested on: erythromycin resistant strains of Streptococcus pneumoniae
Experimental: as §1

Row | MIC (S. pyogenes 3565) | MIC [1] | MIC (H. influenzae ATCC 49247) | MIC (S. pneumoniae SP030) | MIC [2] | MIC (E. faecalis ATCC 29212) | MIC [3] | MIC [4] | SMILES
1 | ≤ 1 µg/mL | ≤ 4 µg/mL | ≤ 4 µg/mL | ≤ 1 µg/mL | ≤ 1 µg/mL | ≤ 1 µg/mL | ≤ 1 µg/mL | ≤ 1 µg/mL | CC[C@@H]1OC(=O)[C@H](C)[C@H](O[C@@H]2C[C@](C)(OC)[C@H](OCCCN(C)CCCc3ccc4c(c3)c(=O)c(C(=O)O)cn4CC)[C@H](C)O2)[C@@H](C)[C@H](O[C@H]2O[C@@H](C)C[C@@H](N(C)C)[C@H]2O)[C@](C)(OC)C[C@H](C)C(=O)[C@H](C)[C@H]2NC(=O)O[C@@]12C [Example 29, 4″-O-{3-[[3-(3-Carboxy-1-ethyl-4-oxo-1,4-dihydro-quinolin-6-yl)-propyl]-methylamino]-propyl}-6-O-methyl-11-desoxy-11-(R)-amino-erythromycin A 11,12-carbamate formate]
2 | ≤ 1 µg/mL | ≤ 4 µg/mL | ≤ 4 µg/mL | ≤ 1 µg/mL | ≤ 1 µg/mL | ≤ 1 µg/mL | ≤ 1 µg/mL | ≤ 1 µg/mL | CC[C@H]1OC(=O)[C@H](C)[C@@H](O[C@H]2C[C@@](C)(OC)[C@@H](OCCCN(C)CCCc3cnc4c(c3)c(=O)c(C(=O)O)cn4CC)[C@H](C)O2)[C@H](C)[C@@H](O[C@@H]2O[C@H](C)C[C@H](N(C)C)[C@H]2O)[C@](C)(OC)C[C@@H](C)C(=O)[C@@H](C)[C@H]2NC(=O)O[C@@]21C [Example 30, 4″-O-{3-[[3-(3-Carboxy-1-ethyl-4-oxo-1,4-dihydro-6-[1,8]naphthryidinyl)-propyl]-methylamino]-propyl}-6-O-methyl-11-desoxy-11-(R)-amino-erythromycin A 11,12-carbamate]
3 | ≤ 1 µg/mL | ≤ 4 µg/mL | ≤ 4 µg/mL | ≤ 1 µg/mL | ≤ 1 µg/mL | ≤ 1 µg/mL | ≤ 1 µg/mL | ≤ 1 µg/mL | CC[C@H]1OC(=O)[C@H](C)[C@@H](O[C@H]2C[C@@](C)(OC)[C@@H](OCCCN(C)CCCc3cc4c5c(c3)c(=O)c(C(=O)O)cn5CCC4)[C@H](C)O2)[C@H](C)[C@@H](O[C@@H]2O[C@H](C)C[C@H](N(C)C)[C@H]2O)[C@](C)(OC)C[C@@H](C)C(=O)[C@@H](C)[C@H]2NC(=O)O[C@@]21C [Example 31, 4″-O-{3-[[3-(2-Carboxy-1-oxo-6,7-dihydro-1H,5H-pyrido[3,2,1-ij]quinolin-9-yl)-propyl]-methylamino]-propyl}-6-O-methyl-11-desoxy-11-(R)-amino-erythromycin A 11,12-carbamate]
4 | ≤ 1 µg/mL | ≤ 4 µg/mL | ≤ 4 µg/mL | ≤ 1 µg/mL | ≤ 1 µg/mL | ≤ 1 µg/mL | ≤ 1 µg/mL | ≤ 1 µg/mL | CC[C@H]1OC(=O)[C@H](C)[C@@H](O[C@H]2C[C@@](C)(OC)[C@@H](OCCCN(C)CCSc3ccc4c(c3)c(=O)c(C(=O)O)cn4CC)[C@H](C)O2)[C@H](C)[C@@H](O[C@@H]2O[C@H](C)C[C@H](N(C)C)[C@H]2O)[C@](C)(OC)C[C@@H](C)C(=O)[C@@H](C)[C@H]2NC(=O)O[C@@]21C [Example 32, 4″-O-{3-[[2-(3-Carboxy-1-ethyl-4-oxo-1,4-dihydro-quinolin-6-ylsulfanyl)-ethyl]-methylamino]-propyl}-6-O-methyl-11-desoxy-11-(R)-amino-erythromycin A 11,12-carbamate]
